The values below come from publication PMC11213934, “Allosteric modulators of M1 muscarinic receptors enhance acetylcholine efficacy and decrease locomotor activity and turning behaviors in zebrafish” (Scientific Reports, 2024).

In series [1] the test system is wild-type (AB) zebrafish (Danio rerio). Description: animal or person. The format is in vivo. The conditions noted are these: for MEC: locomotor behaviors. On the procedure:
(§1) Larval zebrafish were produced in the University of Toledo zebrafish core facility and housed in an incubator maintained at 28 °C on a 14:10 h cycle. Fish were acclimated to the testing room conditions the evening prior to testing. All testing took place during the 14 h light cycle after the lights had been on for at least 2 h.
The movement of larval zebrafish was monitored with the Noldus behavior recording system (Noldus Information Technology, Leesburg VA) and quantified using EthoVision® XT 15 software (Noldus Information Technology, Leesburg VA). Five-dpf zebrafish larvae were exposed to a range of nonlethal concentrations of compounds in a 24-well plate with appropriate controls. The plate was immediately placed in the incubator for a 30-min exposure period. After 30 min, the plate was transferred to the Noldus system and swimming behavior was recorded in 100% light for 30 min to measure spontaneous swimming behavior. The light was switched off for 10 min (dark period) and then switched on for 10 min (light period), which was then repeated for two additional cycles. In total, the larvae were exposed to three cycles of alternating 10 min dark and light periods (100% darkness-to-100% light). Each drug challenge was conducted on three separate plates with n = 6 larvae/dose/plate.
Absolute turn angle (TA) and angular velocity provided measures of the extent of turning behavior, while the intra-individual variance of turn angle quantified how consistently (low variance) or inconsistently (high variance) fish turned. A lowered intra-individual variance of turning reflected repeatedly performing the same turning behavior, a stereotypy.
All data for exposure and the behavioral end points were analyzed by one-way ANOVA (factor: drug concentration) followed by a Dunnett’s multiple comparisons test for post hoc significance between drug concentration and control group. Statistically significant differences are noted as follows; *p < 0.05; **p < 0.01; ***p < 0.001.

In series [2] the target is T1, human M1 muscarinic receptors (Homo sapiens, UniProt P11229).
T1 sequence (P11229 1-460): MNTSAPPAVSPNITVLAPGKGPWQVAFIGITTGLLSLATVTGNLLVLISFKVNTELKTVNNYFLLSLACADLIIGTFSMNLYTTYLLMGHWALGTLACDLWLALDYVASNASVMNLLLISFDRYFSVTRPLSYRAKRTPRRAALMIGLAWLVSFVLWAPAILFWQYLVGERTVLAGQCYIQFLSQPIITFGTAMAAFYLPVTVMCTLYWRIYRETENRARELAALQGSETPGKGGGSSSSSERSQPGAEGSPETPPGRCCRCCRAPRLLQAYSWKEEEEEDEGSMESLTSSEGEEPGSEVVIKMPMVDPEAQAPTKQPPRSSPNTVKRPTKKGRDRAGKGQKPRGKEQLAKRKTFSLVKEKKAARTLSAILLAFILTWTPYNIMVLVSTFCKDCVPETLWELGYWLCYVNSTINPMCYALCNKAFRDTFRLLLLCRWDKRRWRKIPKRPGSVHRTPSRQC
Description: [3H]-arachidonic acid release in CHO cells expressing M1 receptors, with and without ACh (single modulator concentration, four-parameter curves). Format: cell-based. More on the design: expressed in transfected cells; host or cells: CHO cells stably transfected with hM1, obtained from Mark Brann's laboratory (NIH). As to conditions: for 0.1 µM ACh: response with modulator present divided by response to ACh alone / 100 µM ACh: response with modulator present divided by response to ACh alone / No ACh: agonist effect of the allosteric ligand by itself, fraction of the maximal response that could be elicited by ACh: modulator 10 µM, CHO-hM1, mean ± s.e.m.; for No ACh: agonist effect of the allosteric ligand by itself, fraction of the maximal response that could be elicited by ACh: at least 4 determinations. On the procedure: CHO cells expressing human M1 muscarinic receptors were cultured at 37 °C in a 5% CO2 atmosphere in F12 medium supplemented with 5% fetal bovine serum, 100 units/ml penicillin, and 100 µg/ml streptomycin. These cells were obtained from Mark Brann’s laboratory when they were at NIH and have been in use by us and others for many years.
Measurement of [^3H]AA release was performed as described in Stahl and Ellis[24]. Stably transfected CHO-hM1 cells were seeded on 24-well plates (Greiner Bio-One GmbH, Frickenhausen, Germany) at a density of 5.0 × 10^4 cells/well in 0.5 ml of F-12 medium. Cells were incubated until they attached (approximately 3 h), followed by the addition of [^3H]AA to a final concentration of 0.05 μCi of [^3H]AA per well. The cells were then grown for 16 to 20 h before the assay was performed. [^3H]AA release was measured in Eagle’s basal medium with 20 mM HEPES and 2 mg/ml fatty acid-free bovine serum albumin (EM-BSA). Cells were rinsed twice with EM-BSA, followed by the addition of EM-BSA media containing experimental agents and incubated for 1 h at 37 °C. The assay was terminated by aspiration of the media, and the amount of [^3H]AA released was determined by liquid scintillation counting (Beckman-Coulter LS6500).
Where indicated (Fig. 2), cells were pretreated with POB to reduce the number of available receptors per cell. Stock POB was made up at 10 mM in ethanol and stored at −20C. Each well was pretreated with 0.5 ml of the appropriate concentration in PBS with 1 mM CaCl2 and 1 mM MgCl2 (PBS+ +) for 30 min at 37 °C, followed by 5 washes with PBS+ + . After pretreatment, the normal protocol follows as above.
Tabulated [^3H]AA release data are represented as a fraction of maximal release elicited by ACh or as the fraction of release elicited by the relevant concentration of ACh alone, as indicated. Dose-response curves were normalized to the maximal response of ACh without allosteric ligand. Where indicated, response curves were analyzed using the empirical four-parameter equation: Y=Top+Bottom-Top/1+X/C50^n where X is the concentration of the ligand used, Y is the amount of response, C50 is the concentration of the ligand that produces 50% of the maximal effect, Top and Bottom are the top and bottom plateaus of the curve, and n is related to the Hill slope for the curve. Where indicated, families of response curves were analyzed according to an allosteric operational model[50],[51]: Y=EM[τAA(KB+αβB)+τBBKA]/[τAA(KB+αβB)+τBBKA+AKB+KAKB+KAB+αAB] where EM is the maximal response; A is the concentration of ACh; B is the concentration of the allosteric ligand; τA and τB represent the operational efficacies of A and B, respectively; KA and KB are the equilibrium dissociation constants of A and B; and α and β represent the cooperativities between A and B in terms of binding and activation, respectively. Curve-fitting was carried out with GraphPad Prism, version 5.0 or 6.0 (San Diego CA).

In series [3] the test system is wild-type (AB) zebrafish (Danio rerio). Description: Maximum tolerated concentration (MTC) determination in larval zebrafish. Format: in vivo. The conditions noted are these: for MTC (maximum tolerated concentration): after 24 h exposure, 5 dpf larvae. How it is done:
as §1
Determination of maximum tolerated concentration (adapted from Berghmans)[52] was completed by placing 5 days post fertilization (dpf) wild-type zebrafish larvae in a 24 well plate at 6 fish per well, and one compound concentration per well. […] Death was determined by the absence of heartbeat. Additional endpoints were used to assess toxicity at non-lethal concentrations such as startle capacity (poke stimulus), abnormalities in swimming behavior (loss of dorsoventral balance), and gross morphological deformities (bent body). […] The MTC determination was used to select three doses of each compound (low, medium, high dose) to be used in behavioral assays.

Series [4] shares this test system. Format: in vivo. As to conditions: compound at 10 µM relative to controls; mean ± s.e.m., N = 12.
Where [5] appears, read: modulators at 10 µM (amiodarone 30 µM).
The mark [6] stands for this setting: compound at 10 µM relative to controls, mean ± s.e.m., N = 12.

“Also recorded” adds a separate entry of the source. Where two headings read alike, the source gives them in different places. Marks after values point to notes of the source that are not given here.

Consider `CCCCc1oc2ccccc2c1C(=O)c1cc(I)c(OCC[N+](CC)(CC)CC)c(I)c1` [Compound 2, N-ethyl amiodarone, reference compound], for which the MEC in series [1] is on record as more than 1 µM. In addition, in series [2], the “0.1 µM ACh: response with modulator present divided by response to ACh alone” value turned out to be 0.13 ± 0.04; the “100 µM ACh: response with modulator present divided by response to ACh alone” value is recorded as 0.50 ± 0.03; the “No ACh: agonist effect of the allosteric ligand by itself, fraction of the maximal response that could be elicited by ACh” value turned out to be 0.04 ± 0.02. In addition, the “Effect on M1 receptor activity and ACh response, in words” value in series [2] (setting [5]) was “NAM of mAChR potency and efficacy”. Moreover, the “MTC (maximum tolerated concentration)” value in series [3] was 1 µM.
The compound `CCCCc1oc2ccccc2c1C(=O)c1cc(I)c(O)c(I)c1` [Compound 3, reference compound] came in with an MEC in series [1] of more than 3 µM. In series [2], the “0.1 µM ACh: response with modulator present divided by response to ACh alone” value came to 0.63 ± 0.10; the “100 µM ACh: response with modulator present divided by response to ACh alone” value is given as 0.90 ± 0.07; the “No ACh: agonist effect of the allosteric ligand by itself, fraction of the maximal response that could be elicited by ACh” value amounted to 0.04 ± 0.01. Moreover, the “Effect on M1 receptor activity and ACh response, in words” value in series [2] (setting [5]) is given as “suppressed the maximal ACh response”. The “MTC (maximum tolerated concentration)” value in series [3] was found to be 3 µM.
For `COc1ccc(Cn2cc(C(=O)O)c(=O)c3ccccc32)cc1` [BQCA, reference compound], the “Effect on locomotor activity and turning behaviors, in words” value in series [1] (30 min spontaneous swimming period) is listed as “decreased overall locomotor activity; also recorded: increased angular velocity”. In series [1] (Danio rerio, read-out: Distance moved), the response vs control in vivo at 10 µM was found to be 72 ± 10%. Also, the MEC in series [1] (abbreviation not defined in the paper) was 3 µM. In addition, in series [1] (setting [6]), the Angular velocity was 141.8 ± 14.9* % and the Variance turn angle was 119.6 ± 7.0* %. For the same compound, in series [2], the “Effect on M1 receptor activity and ACh response, in words” value is listed as “enhanced potency without appreciable effect on maximal response”; the “No ACh: agonist effect of the allosteric ligand by itself, fraction of the maximal response that could be elicited by ACh” value was 0.02 ± 0.00.
Turning to `CC(COc1ccccc1)N(CCCl)Cc1ccccc1` (stereo not drawn) [POB, phenoxybenzamine, reference compound], the “Reduction of receptor number” value in series [2] (pretreatment of cells with 0.3 µM POB) turned out to be 90%.
As for `O=C1C(=O)N(Cc2ccc(Br)cc2)c2ccccc21` [VU0119498, reference compound], in series [2], the “0.1 µM ACh: response with modulator present divided by response to ACh alone” value amounted to 1.28 ± 0.12; the “100 µM ACh: response with modulator present divided by response to ACh alone” value is recorded as 1.03 ± 0.05; the “No ACh: agonist effect of the allosteric ligand by itself, fraction of the maximal response that could be elicited by ACh” value came to 0.06 ± 0.01.
Consider `CCCCc1oc2ccccc2c1C(=O)c1cc(I)c(OCCN(CC)CC)c(I)c1` [Amiodarone, reference compound], for which, in series [4], the Angular velocity was determined as 83.2 ± 12.0%. In series [1] (setting [6]), this compound came in with a Distance moved of 85.7 ± 10.2% and a Variance turn angle of 102.2 ± 10.4%. The same compound displayed an MEC in series [1] of more than 10 µM. Besides, in series [3] (24 h exposure), the “Concentration that produced death” value came out at 100 µM. Moreover, the “MTC (maximum tolerated concentration)” value in series [3] is reported as 10 µM.
For the compound `COc1cccc(CN2C(=O)C(=O)c3ccccc32)c1` [Compound 8j, 1-(3-methoxybenzyl)indoline-2,3-dione], in series [2], the “0.1 µM ACh: response with modulator present divided by response to ACh alone” value is 1.09 ± 0.31; the “100 µM ACh: response with modulator present divided by response to ACh alone” value is 0.96 ± 0.01; the “No ACh: agonist effect of the allosteric ligand by itself, fraction of the maximal response that could be elicited by ACh” value is 0.02 ± 0.02.
VU0238408 [reference compound] showed an Angular velocity in series [4] of 180.1 ± 20.3 %. In series [1], this compound gave a Therap. index of 30 and an MEC of 1 µM. In series [1] (setting [6]), the Distance moved is on record as 34.6 ± 4.0*** % and the Variance turn angle is 146.6 ± 12.4*** %. The “MTC (maximum tolerated concentration)” value in series [3] was 30 µM.
In series [1], `CCCCc1oc2ccccc2c1C(=O)c1cc(I)c(OCCNCC)c(I)c1.Cl` [Compound 1, (2-butylbenzofuran-3-yl)(4-(2-(ethylamino)ethoxy)-3,5-diiodophenyl)methanone hydrochloride] registered a Therap. index of 1 and an MEC of 3 µM. Besides, in series [2], the “0.1 µM ACh: response with modulator present divided by response to ACh alone” value amounted to 1.01 ± 0.11; the “100 µM ACh: response with modulator present divided by response to ACh alone” value came out at 0.83 ± 0.09; the “No ACh: agonist effect of the allosteric ligand by itself, fraction of the maximal response that could be elicited by ACh” value amounted to 0.18 ± 0.03. For the same compound, in series [2] (setting [5]), the “Effect on M1 receptor activity and ACh response, in words” value is given as “suppressed the maximal ACh response”. For the same compound, in series [3], the “MTC (maximum tolerated concentration)” value is 3 µM.
In series [1], `CCCCc1oc2ccccc2c1C(=O)c1ccc(O)cc1` [Compound 4, reference compound] came in with an MEC of more than 0.3 µM. In series [2], the “0.1 µM ACh: response with modulator present divided by response to ACh alone” value worked out at 0.62 ± 0.07; the “100 µM ACh: response with modulator present divided by response to ACh alone” value was found to be 0.81 ± 0.06; the “No ACh: agonist effect of the allosteric ligand by itself, fraction of the maximal response that could be elicited by ACh” value was determined as 0.04 ± 0.01. In series [2] (setting [5]), the “Effect on M1 receptor activity and ACh response, in words” value is reported as “suppressed the maximal ACh response”. Also, in series [3], the “MTC (maximum tolerated concentration)” value amounted to 0.3 µM.
